Laboratory results taken from patent US12636373B2, “Prodrugs with a tridentate self-immolative linker” (The General Hospital Corporation, priority 2018, dated 2026).
Where two headings read alike, the source gives them in different places.

Key:
[1] = cited from earlier work
[2] = test system: HT1080 fibrosarcoma cancer cells; assay: Resazurin-based cytotoxicity assay, 72 h; conditions: for IC50: read-out: IC50 (concentration at which 50% of cells died)
Procedure: (§1) In vitro NP characterization: 5,000 cells per well were added to 96-well plates for cytotoxicity assessment; cells were treated after overnight seeding with compound or the appropriate buffer control (drug-free PLGA-PEG NP), and assessed for viability 72 h later using PrestoBlue (Life Technologies) following the manufacturer's protocol.

[3] = Pd-mediated uncaging of fluorogenic coumarin substrate (reaction kinetics and catalyst performance); conditions: PdCl2(TFP)2, HBSS
Procedure: Reaction kinetics and catalyst performance. Alloc-SIL-dPEG4-AMC (8) was reacted at a concentration of 5 μM with palladium catalyst (Pd-1, Pd-2, Pd-3, Pd-4) at a concentration of 10 μM in HBSS and MEM (see FIG. 8). Alloc2R110 was reacted at a concentration of 5 μM with Pd-1 at a concentration of 10 μM in HBSS as described previously.2 Fluorescence was monitored for 10 h at room temperature using 96 well plates and a Tecan Safire 2 fluorescence plate reader.

[4] = In vitro NP prodrug release in PBS; type: physicochemical; conditions: over 72 h at 37° C. in PBS
Procedure: Transmission electron microscopy (TEM) was performed in the Microscopy Core of the Center for Systems Biology/Program in Membrane Biology (MGH). […] Excess solution was blotted, grids were stained with phosphotungstic acid, and then blotted, dried and imaged. In vitro NP prodrug release was performed by incubating in PBS at 37° C., separating NPs using a 30 kDa molecular weight cutoff filter (Millipore Amicon) after 72 h, and measuring flow-through for drug content by absorbance (Nanodrop). NP was dissolved in DMF and also measured for drug content by absorbance. Pd-NP, Alloc2R110 and its nanoformulation, and all Pd compounds were synthesized and characterized as previously described.^5

HT1080 cancer cells = assay: Subcellular drug accumulation by intrinsic anthracycline fluorescence microscopy; type: cell-based, human; conditions: HT1080, 24 h
Procedure: FIGS. 3A-3D. […] Co-localization was determined by tabulating the fraction of NP-positive puncta (vesicles) in cells that contained high RFP expression or not (labeled red and gray, respectively; n>10 cells, bars are mean±std. dev.). b) Following 30 min pre-treatment with the indicated compounds, HT1080 cells were treated with the same NP as in a, and imaged 3 h later (n>6 biological replicates; mean±s.e.m.). c-d) HT1080 tumor cells were treated with C16proDOX, DOX, or Pd-NP with C16proDOX for 24 h, and then imaged by fluorescence microscopy (representative images shown in c) to evaluate subcellular drug accumulation based on endogenous anthracycline fluorescence (scale bar, 20 μm). Yellow lines (c) denote representative examples of how fluorescence intensity profiles were quantified from line-scans through cells (d), shown as means (thick line)±s.e.m. (shading; n>10), for hoechstand anthracycline fluorescence.

HT1080 cells = type: cell-based, human; conditions: for uptake of fluorescent PLGA-PEG NPs: 30 min pre-treatment, imaged 3 h later
Procedure: In vitro NP uptake imaging. To quantify subcellular localization of NPs in HT1080 cells, Rab7a-RFP and Lamp1-RFP fusion constructs were expressed using a commercial baculovirus platform (CellLight BacMam 2.0, Invitrogen), following manufacturing guidelines. Pharmacological modulation of NP uptake was performed using the following: staurosporine (1 μM; LC labs), latrunculin B (1 μM; Tocris), cytochalasin D (1 μM; Sigma), chloroquine (50 μM; Sigma), and ethylisopropyl amiloride EIPA (100 μM; Tocris). Cells were rinsed in fresh media immediately prior to imaging; only adherent cells were quantified. Chloroquine dose-response measurements were normalized to the C16proDOX control (rather than the chloroquine-free control), in order to compare relative effects on the potency of Pd-mediated C16proDOX activation itself 50 μM chloroquine alone caused a 15-30% decrease in cell viability.

[5] = Resazurin-based cytotoxicity assay, 72 h; conditions: human, HT1080 fibrosarcoma cancer cells
Procedure: as §1

[6] = without the C16 anchor; cited from earlier work

C=CCOC(=O)N[C@H]1C[C@H](O[C@H]2C[C@](O)(C(=O)CO)Cc3c(O)c4c(c(O)c32)C(=O)c2c(OC)cccc2C4=O)O[C@@H](C)[C@H]1O [Alloc-DOX, reference compound]
myelotoxicity ([1]; dual Pd-NP and Alloc-DOX strategy): did not
IC50 ([2]; HT1080, 72 h, without Pd-NP): 18 µM
turn-on capacity in cytotoxicity ([2]; with vs without Pd-NP): ~700 ×

C=CCOC(=O)Nc1ccc(C(OC(=O)Nc2ccc3c(C)cc(=O)oc3c2)C(=O)NCCOCCOCCOCCO)cc1 (stereo not drawn) [Alloc-SIL-PEG4-AMC, Alloc-SIL-AMC-dPEG4]
uncaging rate relative to Alloc2R110 (calculated second order rate constants) [3]: approximately 1.5 fold

C=CCOC(=O)Nc1ccc(C(OC(=O)N[C@H]2C[C@H](O[C@H]3C[C@](O)(C(=O)CO)Cc4c(O)c5c(c(O)c43)C(=O)c3c(OC)cccc3C5=O)O[C@@H](C)[C@H]2O)C(=O)NCCCCCCCCCCCCCCCC)cc1 (stereo partly drawn) [C16proDOX, Alloc-SIL-C16-Dox]
release of the prodrug payload from the nanoformulation [4]: 20%±6%
IC20, fold higher than Alloc-DOX ([2]; HT1080, without Pd-NP): roughly 15 fold
IC20, fold higher than uncaged DOX ([2]; HT1080, without Pd-NP): ~1900 fold
IC50 ([2]; Homo sapiens, HT-1080, 72 h): > 50 µM
subcellular accumulation (HT1080 cancer cells; co-incubation with Pd-NP): detectable increase of drug in the nucleus compared to the cytoplasm
subcellular accumulation (HT1080 cancer cells; without Pd-NP): accumulated primarily in cytoplasmic/perinuclear cellular compartments

CCN(c1nc(N)c(C(=O)N=C(N)N)nc1Cl)C(C)C [EIPA, 5-(N-Ethyl-N-isopropyl)amiloride]
uptake of fluorescent PLGA-PEG NPs (HT1080 cells): acutely reduced the uptake of NPs

CCN(CC)CCCC(C)Nc1ccnc2cc(Cl)ccc12 (stereo not drawn) [chloroquine, reference compound]
cytotoxicity at 72 h, 50 μM [5]: 15 to 30%
impact on cytotoxicity of combined Pd-NP and C16proDOX treatment ([2]; HT1080, 50 μM chloroquine, 50 μM Pd-NP, 72 h): only modest impact
NP accumulation in vesicles (HT1080 cells; HT1080, 50 μM chloroquine co-treatment, 24 h): enhanced accumulation of NPs in distinctly large vesicles

C=C1[C@@H](C)[C@H]2[C@H](Cc3ccccc3)NC(=O)[C@]23[C@H](OC(C)=O)/C=C/[C@@](C)(O)C(=O)[C@@H](C)C/C=C/[C@H]3[C@@H]1O [cytochalasin D]
uptake of fluorescent PLGA-PEG NPs (HT1080 cells): acutely reduced the uptake of NPs

COc1cccc2c1C(=O)c1c(O)c3c(c(O)c1C2=O)C[C@@](O)(C(=O)CO)C[C@@H]3O[C@H]1C[C@H](N)[C@H](O)[C@H](C)O1 [doxorubicin, reference compound]
nano-encapsulation efficiency (earlier report) [6]: 22%
myelotoxicity ([1]; solvent- and nano-formulations, equimolar doses): exhibited myelotoxicity
IC50 ([2]; Homo sapiens, HT-1080, 72 h): 0.1 µM
subcellular accumulation (HT1080 cancer cells; without Pd-NP): primarily accumulates in the nuclei of cancer cells

C/C1=C/C(=O)O[C@@H]2C[C@@H](CC[C@H](C)/C=C\C=C\CC1)O[C@@](O)([C@@H]1CSC(=O)N1)C2 [latrunculin A]
uptake of fluorescent PLGA-PEG NPs (HT1080 cells): acutely reduced the uptake of NPs

CN[C@@H]1C[C@H]2O[C@@](C)([C@@H]1OC)n1c3ccccc3c3c4c(c5c6ccccc6n2c5c31)C(=O)NC4 [staurosporine]
uptake of fluorescent PLGA-PEG NPs (HT1080 cells): decreased NP accumulation
